Experiments:
Calvarial cell [1] = assay: Alkaline phosphatase (ALP) activity in osteoblasts (Calvarial cells); assay type: cell-based, mouse; details: 3 days; for activity at 1 µM: Mus musculus, 72 h, read-out: ALP activity (1 μM, % of Control) Calvarial cell
Description: (§1) Differentiation and activity of osteoblasts were indirectly evaluated by measuring an ALP activity having a close relationship with osteogenesis.
(§2) Osteoblasts (Calvarial cells) prepared in Experimental Example 1 and MC3T3-E1 cells (available from RIKEN Cell Bank, Japan) were collected in α-MEM supplemented with 10% FBS, followed by cell counting. The cells were dispensed into 24-well cultureware at a density of 2×10^4 cells/well. After culturing of the cells for 24 hours, the culture media were discarded and replaced with fresh media in which test compounds were diluted to a concentration of 1 μM (1 mL/well). In addition, the vehicle control group containing 0.1% DMSO was also treated. Under the conditions where the compounds were treated, the cells were cultured in a 5% CO2 […] at 37° for 3 days. When the experiment was terminated, the supernatant was removed and the cells were washed three times with cold phosphate buffer at 4°. 0.2% Triton X-100 was added to the washed cells which were then subjected to three cycles of freezing at −70° and thawing at room temperature for the complete lysis of cells. The cell extracts were pooled and centrifuged to collect the cell supernatant which was used for the measurement of ALP activity and proteins. The protein concentration was measured using a BCA assay kit (manufactured by Sigma-Aldrich). For the measurement of ALP activity, p-nitrophenylphosphate was added to the cell supernatant which was then incubated at 37° for 30 minutes, and the reaction was terminated with the addition of 50 μL of 0.2N sodium hydroxide. The standard curve was plotted at the absorbance of 405 nm using p-nitrophenol as a standard material and then the absorbance of test materials thus reacted was measured to determine the production amount of p-nitrophenol.
(§3) The ALP activity was calculated by dividing the amount of p-nitrophenol produced from each test material by the protein amount and the reaction time. Therefore, the unit of ALP activity was given in terms of p-nitrophenol/μg protein/min. The results are given in Table 3 where the ALP activity unit of each test material was given in terms of % change through the comparison between the individual test materials and the vehicle control group.

MC3T3-E1 cell = assay: Alkaline phosphatase (ALP) activity in MC3T3-E1 cells; assay type: cell-based; details: 3 days; for activity at 1 µM: Mus musculus, 72 h, read-out: ALP activity (1 μM, % of Control) MC3T3-E1 cell
Description: as §1, §2, §3

Calvarial cell [2] = assay: Cytotoxicity test (MTT) in osteoblasts (calvarial cells); details: 1 μM, 72 hours, vs vehicle control
Description: Drugs were diluted to a concentration of 2 μM in α-MEM culture media supplemented with 10% FBS. The vehicle control group was established to contain 0.2% DMSO. 100 μL/well of the diluted drugs were dispensed into 96-well plates to which osteoblasts (calvarial cells) prepared in Experimental Example 1 were then added at a density of 1.0×10^4 cells/100 μL/well. Here, the final compound concentration in the cell culture was 1 μM, and the vehicle control group contained 0.1% DMSO. The cells were cultured in a 5% CO2 inhibitorr at 37° for 72 hours. 25 μL of 3-(4,5-dimethyl-2-thiazolyl)-2,5-diphenyl-2H-tetrazolium bromide (MTT) dissolved in PBS (2 mg/mL) was added to each cell culture 4 hours before the end of culture. After completion of the reaction, the plates were centrifuged, the media were discarded, and 100 μL of formazan was added and dissolved in dimethyl sulfoxide (DMSO). Finally, the absorbance of the developed plates was measured at 540 nm. The cell viability was expressed as % concentration in comparison with the vehicle control group.

[3] = test system: osteoclastogenesis (formation of multinucleated osteoclasts); assay: Osteoclastogenesis inhibition via co-culture system (bone marrow cells + osteoblasts, TRAP staining); assay type: cell-based, mouse; details: 7 days co-culture, vs vehicle control; for inhibition at 1 µM: Mus musculus, Osteoclast, 168 h; for Osteoclastogenesis inhibition (%): 1 μM
Description: Osteoclastogenesis inhibitory effects of the compounds of the present invention were evaluated via a co-culture system (Reference: Endocrinology 137(1996), 2187 to 2190, E. Jimi et al.). A specific experimental method is as follows.
1) Preparation of Bone Marrow Cells and Osteoblasts
Femur and tibia were aseptically dissected from 6 to 8-week-old male ddY mice to harvest bone marrow cells by a conventional method using a syringe. In brief, tissues were removed from the dissected bone, the bone ends were cut off with scissors, and the bone marrow was isolated by pushing a medium-containing syringe (23G) against the one end of the cut bone. The isolated bone marrow was subjected to repeated piston movement of a syringe such that single cells were obtained (Reference: Endocrinology 123(1988), 2600 to 2602, Takahashi et al.). After removal of red blood cells within the bone marrow, the bone marrow cells recovered by centrifugation were placed in an α-MEM supplemented with 10% fetal bovine serum (FBS), followed by counting of nucleated cells and then were immediately used for a co-culture system.
For the preparation of osteoblasts (Calvarial cells), the cranial bone were aseptically dissected from 1 to 2-day-old neonatal ICR mice and subjected to continuous reaction with a 0.2% collagenase solution to separate osteoblasts. The cell-suspended supernatant was centrifuged to recover osteoblasts which were grown to full confluence in an α-MEM supplemented with 10% FBS and then diluted to a desired cell density for use in the experiment.
2) Osteoclastogenesis Inhibition Experiment Via Co-Culture System
As the medium used for a co-culture system, a differentiation medium with the addition of differentiation factors 1α,25-dihydroxyvitamin D3 (10^−8M) and dexamethasone (10^−8M) to α-MEM supplemented with 10% FBS was used for the induction of osteoclastogenesis. First, the compounds of the present invention dissolved in dimethyl sulfoxide (DMSO) at a concentration of 1 mM were diluted to 2 μM using the above-mentioned differentiation medium. As a vehicle control group, 0.2% (v/v) DMSO was added to the medium. 100 μL/well of each medium was added to 96-well plates. In addition, the above prepared bone marrow cells and osteoblasts were plated onto 96-well plates at a density of 1×10^5 cells/50 μL/well and 3×10^3 cells/50 μL/well, respectively. The total volume/well was 200 μL and the final compound concentration was 1 μM. The control group was 0.1% (v/v) DMSO. The cells were cultured with exchange of the culture media with fresh media containing differentiation factors and test materials (materials containing the compounds of the present invention) at an interval of 2 to 3 days.
7 days after culturing of cells, the formation of multinucleated osteoclasts was confirmed by microscopic examination, the medium was removed from the wells and then the cells were fixed in a 10% phosphate-buffered formalin solution. The degree of formation of mature osteoclasts was measured taking advantage of the characteristics of osteoclasts showing a positive reaction to a tartrate-resistant acid phosphatase (TRAP) staining solution. The TRAP staining solution was prepared in a manner such that naphthol AS-MS phosphate as a substrate and a coloring agent (Fast Red Violet LB salt) were dissolved in N,N-dimethylformamide, and a 0.1N NaHCO3 buffer solution containing 50 mM of tartaric acid was added thereto. Among the TRAP-positive cells under a light microscope, multinucleated osteoclasts having 6 to 7 nuclei were regarded as mature osteoclasts.
The degree of inhibition of osteoclastogenesis was calculated according to the following equation 1. The results are summarized in Table 2 below (Experiments were carried out for 4 wells/experimental group (n=4), and the results are given in terms of mean±standard deviation) […]

Row | Compound | ALP activity (1 μM, % of Control) Calvarial cell (Calvarial cell [1]) | ALP activity (1 μM, % of Control) MC3T3-E1 cell (MC3T3-E1 cell) | Cell viability (%) Calvarial cell (Calvarial cell [2]) | activity at 1 µM (Calvarial cell [1]) | activity at 1 µM (MC3T3-E1 cell) | inhibition at 1 µM [3] | Osteoclastogenesis inhibition (%) [3]
1 | 2-(1H-indazol-5-yl)amino-6-(2-methyl-4,5-dihydroimidazol-1-yl)amino-3-nitropyridine [Compound 1] | 158 % of Control | 168 % of Control | – | – | – | – | –
2 | CC(C)CNc1ccc([N+](=O)[O-])c(Nc2ccc3[nH]ncc3c2)n1 [Compound 8, 2-(1H-indazol-5-yl)amino-6-(isobutylamino)-3-nitropyridine] | – | – | 96% | 157% | 240% | 100% | –
3 | O=[N+]([O-])c1ccc(NCc2ccccn2)nc1Nc1ccc2cn[nH]c2c1 [Compound 21, 2-(1H-indazol-6-yl)amino-6-[(2-pyridyl)methylamino]-3-nitropyridine] | – | – | 96% | 115% | – | – | –
4 | CC(C)(C)Nc1ccc([N+](=O)[O-])c(Nc2ccc3[nH]ncc3c2)n1 [Compound 12, 2-(1H-indazol-5-yl)amino-6-(t-butylamino)-3-nitropyridine] | – | – | 109% | 152% | 136% | 99% | –
5 | CN1CCN(Nc2ccc([N+](=O)[O-])c(Nc3ccc4cn[nH]c4c3)n2)CC1 [Compound 23, 2-(1H-indazol-6-yl)amino-6-[(4-methylpiperazin-1-yl)amino]-3-nitropyridine] | – | – | 98% | 139% | – | 92% | –
6 | CN(C)c1ccc([N+](=O)[O-])c(Nc2ccc3[nH]ncc3c2)n1 [Compound 25, 2-(1H-indazol-5-yl)amino-6-(N,N-dimethylamino)-3-nitropyridine] | – | – | 106% | 128% | – | 81% | –
7 | O=[N+]([O-])c1ccc(N2CCN(CCO)CC2)nc1Nc1ccc2cn[nH]c2c1 [Compound 19, 2-(1H-indazol-6-yl)amino-6-[4-(2-hydroxyethyl)piperazin-1-yl]-3-nitropyridine] | – | – | 100% | 132% | – | 90% | –
8 | O=[N+]([O-])c1ccc(NC2CC2)nc1Nc1ccc2[nH]ncc2c1 [Compound 34, 2-(1H-indazol-5-yl)amino-6-(cyclopropylamino)-3-nitropyridine] | – | – | 93% | 154% | – | 100% | –
9 | O=[N+]([O-])c1ccc(NCCc2ccccn2)nc1Nc1ccc2cn[nH]c2c1 [Compound 14, 2-(1H-indazol-6-yl)amino-6-[(2-pyridyl)ethylamino]-3-nitropyridine] | – | – | 91% | 111% | 121% | 98% | –
10 | O=[N+]([O-])c1ccc(NC(CO)CO)nc1Nc1ccc2[nH]ncc2c1 [Compound 35, 2-(1H-indazol-5-yl)amino-6-[(2-hydroxy-1-hydroxymethyl)-ethylamino]-3-nitropyridine] | – | 123 % of Control | 104% | – | – | – | –
11 | CNc1ccc([N+](=O)[O-])c(Nc2ccc3[nH]ncc3c2)n1 [Compound 5, 2-(1H-indazol-5-yl)amino-6-(methylamino)-3-nitropyridine] | – | – | 112% | 193% | 206% | 89% | –
12 | CN(C)CCNc1ccc([N+](=O)[O-])c(Nc2ccc3cn[nH]c3c2)n1 [Compound 20, 2-(1H-indazol-6-yl)amino-6-[2-(N,N-dimethylamino)ethylamino]-3-nitropyridine] | – | – | – | 119% | – | 90% | –
13 | O=[N+]([O-])c1ccc(NCCN2CCOCC2)nc1Nc1ccc2[nH]ncc2c1 [Compound 37, 2-(1H-indazol-5-yl)amino-6-[(2-morpholino)ethylamino]-3-nitropyridine] | – | – | 94% | 126% | 141% | – | –
14 | O=[N+]([O-])c1ccc(N2CCC(O)CC2)nc1Nc1ccc2[nH]ncc2c1 [Compound 9, 2-(1H-indazol-5-yl)amino-6-(4-hydroxypiperidino)-3-nitropyridine] | – | – | 105% | 166% | 112% | 100% | –
15 | COCC(C)Nc1ccc([N+](=O)[O-])c(Nc2ccc3[nH]ncc3c2)n1 (centres unmarked) [Compound 22, 2-(1H-indazol-5-yl)amino-6-[(1-methyl-2-methoxy)ethylamino]-3-nitropyridine] | 119 % of Control | – | 99% | – | – | – | 100%
16 | O=[N+]([O-])c1ccc(NCc2ccncc2)nc1Nc1ccc2cn[nH]c2c1 [Compound 26, 2-(1H-indazol-6-yl)amino-6-[(4-pyridyl)methylamino]-3-nitropyridine] | – | – | 106% | 113% | – | 78% | –
17 | O=[N+]([O-])c1ccc(NN2CCOCC2)nc1Nc1ccc2cn[nH]c2c1 [Compound 24, 2-(1H-indazol-6-yl)amino-6-[(4-morpholin-1-yl)amino]-3-nitropyridine] | 107 % of Control | – | 110% | – | – | – | 86%
18 | CC(C)Nc1ccc([N+](=O)[O-])c(Nc2ccc3cn[nH]c3c2)n1 [Compound 33, 2-(1H-indazol-6-yl)amino-6-(isopropylamino)-3-nitropyridine] | – | – | 97% | 122% | – | – | –
19 | O=[N+]([O-])c1ccc(NCCCn2ccnc2)nc1Nc1ccc2cn[nH]c2c1 [Compound 49, 2-(1H-indazol-6-yl)amino-6-[(3-imidazol-1-yl)propylamino]-3-nitropyridine] | – | – | 95% | 129% | – | – | –
20 | CN1CCN(c2ccc([N+](=O)[O-])c(Nc3ccc4[nH]ncc4c3)n2)CC1 [Compound 39, 2-(1H-indazol-5-yl)amino-6-(4-methylpiperazin-1-yl)-3-nitropyridine] | – | – | 97% | 159% | – | 80% | –

Source: US20110306641A1, “NOVEL 2,6-SUBSTITUTED-3-NITROPYRIDINE DERIVATIVE, METHOD FOR PREPARING SAME, AND PHARMACEUTICAL PREPARATION INCLUDING SAME” (priority 2008, published 2011)
